In PubChem BioAssay (NCI):
Where “and” joins values, the source holds several entries; their conditions need not be identical. Equal entries are not always repeated.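 Five compound concentrations were applied to cells in 96-well plates for 48 hours; endpoints were derived by simple linear interpolation of the resulting dose-response curve. GI50 is the concentration that inhibits growth by half. TGI marks complete inhibition of growth.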

Columns and labels:
Test in all cases: inhibition of tumour cell growth, NCI panel, 48 h
[1] = test system: TK-10 renal
[2] = test system: NCI-H23 lung
[3] = test system: DU-145 prostate
[4] = test system: ACHN renal
[5] = test system: SK-MEL-28 melanoma
[6] = test system: RXF 393 renal
[7] = test system: A549 NSCLC
[8] = test system: SF-268 CNS
[9] = test system: LOX IMVI melanoma
[10] = test system: HL-60(TB) leukemia

Row | Structure (SMILES) | TGI [1] [µM] | TGI [2] | TGI [3] [µM] | TGI [4] [µM] | TGI [5] [µM] | TGI [6] [µM] | TGI [7] | TGI [8] [µM] | TGI [9] [µM] | TGI [10] | GI50 [2] [µM] | GI50 [6] | GI50 [1] [µM] | GI50 [3] [µM] | GI50 [4] [µM] | GI50 [10] [µM] | GI50 [8] [µM]
1 | Cc1cc2nc3c(N)nn(CCCN(C)C)c3nc2cc1C | > 100 | > 100 µM | > 100 | > 100 | > 100 | > 100 | > 100 µM | > 100 | – | – | – | – | – | – | – | – | –
2 | COc1ccc(C(CC(=O)c2cccs2)C(=O)c2ccc3c(c2)OCO3)cc1 (stereo not drawn) | > 100 | > 100 µM | > 100 | > 100 | > 100 | – | > 100 µM | > 100 | > 100 | > 100 µM | – | – | – | – | – | – | –
3 | Cc1c2ccncc2c(C)c2c1[nH]c1ccc(O)cc12 | – | 84.1 mM and 0.0172 µg/mL | – | – | – | – | 0.397 µg/mL | – | – | 0.0548 µg/mL | 11800 | 0.102 µg/mL | – | – | – | – | –
4 | CSC(SC)=C(C#N)C(=O)Nc1ccc(Cl)cc1 | 72.6 | > 100 µM | > 100 | – | > 100 | 54.9 | > 100 µM | > 100 | 62.1 | 69.3 µM | – | – | – | – | – | – | –
5 | O=[N+]([O-])c1ccc(CSC2=C(c3ccc(Cl)cc3)S/C(=C3\SC(SCc4ccc([N+](=O)[O-])cc4)=C(c4ccc(Cl)cc4)S3)S2)cc1 | > 100 | > 100 µM | > 100 | > 100 | > 100 | > 100 | > 100 µM | > 100 | > 100 | – | – | – | – | – | – | – | –
6 | O=C(CC(C(=O)c1ccsc1)c1cccs1)c1cccs1 (stereo not drawn) | > 100 | > 100 µM | – | > 100 | > 100 | > 100 | > 100 µM | > 100 | > 100 | > 100 µM | – | – | – | – | – | – | –
7 | Cc1cccc(NC(=S)NNC(=O)c2cc(-c3ccccc3)nc3ccccc23)c1 | > 100 | 84.8 µM | > 100 | > 100 | > 100 | 68.3 | 70.7 µM | > 100 | – | – | – | – | – | – | – | – | –
8 | CCC(C)C(NC(=O)c1cccc2c(=O)c3ccccc3[nH]c12)C(=O)O (stereo not drawn) | > 100 | > 100 µM | > 100 | > 100 | > 100 | – | > 100 µM | > 100 | > 100 | – | – | – | – | – | – | – | –
9 | C=CC[PH+](c1ccccc1)c1ccccc1.C=CC[PH+](c1ccccc1)c1ccccc1.[Pt+2].[S-]c1nc2ccccc2[nH]1.[S-]c1nc2ccccc2[nH]1 | 67.4 | – | 42.8 | > 100 | – | 7.06 | – | > 100 | – | 7.32 µM | – | 2.61 µM | 3.29 | 3.33 | 3.89 | 2.51 | 2.77
10 | O=C(O)c1ccccc1Sc1ccc(C=C2NC(=S)N(c3ccccc3)C2=O)s1 | > 100 | > 100 µM | > 100 | > 100 | > 100 | > 100 | – | > 100 | > 100 | 82.1 µM | – | – | – | – | – | – | –
11 | Clc1ccc(Cc2nc3cc(Cl)c(Cl)cc3n2CC2CCCN3CCCCC23)cc1 (stereo not drawn) | 27.7 | – | 26.2 | 22.2 | 20.8 | 37.6 | 26.2 µM | 22.3 | 19.4 | 25.4 µM | – | – | – | – | – | – | –
12 | CCN(CC)C(=O)N[C@@H](CC(C)C)C(=O)NC | – | > 100 µM | > 100 | > 100 | > 100 | > 100 | > 100 µM | > 100 | > 100 | > 100 µM | – | – | – | – | – | – | –
13 | COC(OC)c1cccc2c1C(=O)CCC1(CC2)OCCCCO1 | > 100 | > 100 µM | – | > 100 | > 100 | > 100 | > 100 µM | > 100 | > 100 | > 100 µM | – | – | – | – | – | – | –
14 | CC[C@@]1(O)C(=O)OCc2c1cc1n(c2=O)Cc2c-1nc1ccc(N)cc1c2CC[Si](C)(C)C | 3.88 | < 0.01 µM | 1.68 | – | 13.8 | 0.257 | 0.177 µM | 1.76 | < 0.01 | < 0.01 µM | – | – | – | – | – | – | –
15 | O=C1c2ccccc2CC12Cc1ccc3c(c1C2=O)CCCC3 (stereo not drawn) | > 100 | – | > 100 | > 100 | > 100 | 23.9 | > 100 µM | > 100 | > 100 | > 100 µM | – | – | – | – | – | – | –
16 | CCN(CC)C(=O)Cc1[nH][nH]c(=O)c1C(=O)N(CC)CC | > 100 | > 100 µM | – | > 100 | > 100 | > 100 | > 100 µM | > 100 | > 100 | > 100 µM | – | – | – | – | – | – | –
17 | CN1C/C(=C\c2ccccc2)C2=NN(C(N)=S)[C@H](c3ccccc3)[C@@H]2C1 | > 100 | > 100 µM | – | > 100 | > 100 | > 100 | > 100 µM | > 100 | > 100 | 54.8 µM | – | – | – | – | – | – | –
18 | CCCCCCCC(=O)NC(C)(C)C(=O)NCC(=O)NC(CC(C)C)C(=O)NC(C)(C)C(=O)NCC(=O)NCC(=O)NC(CC(C)C)C(=O)NC(C)(C)C(=O)NCC(=O)NC(C(=O)NC(CO)CC(C)C)C(C)CC (stereo not drawn) | 8.17 | 7.49 µM | 9.53 | 8.75 | 7.32 | 7.97 | 8.01 µM | 7.5 | 6.88 | – | – | – | – | – | – | – | –
19 | C[N+]1(CC[N+]2(C)CCCC2c2cccnc2)CCCC1c1cccnc1 (stereo not drawn) | > 100 | > 100 µM | > 100 | > 100 | > 100 | > 100 | > 100 µM | > 100 | > 100 | – | – | – | – | – | – | – | –
20 | O=S(c1ccc(O)cc1)c1ccc(O)cc1 | > 100 | > 100 µM | – | – | > 100 | > 100 | > 100 µM | > 100 | > 100 | > 100 µM | – | – | – | – | – | – | –
21 | CC(=O)OC1COC(N2C(=O)C(=O)c3ccccc32)C(OC(C)=O)C1OC(C)=O (stereo not drawn) | > 100 | > 100 µM | – | > 100 | > 100 | > 100 | > 100 µM | > 100 | > 100 | – | – | – | – | – | – | – | –
22 | CCCC(O)c1ccc2[nH]c3c(C)cc([N+](=O)[O-])c(C)c3c2c1 (stereo not drawn) | > 100 | > 100 µM | – | > 100 | > 100 | – | > 100 µM | > 100 | > 100 | > 100 µM | – | – | – | – | – | – | –
23 | Cc1cc2c3ccccc3n3c2c2c1OC1(C)CCC(C2C1)C3(C)C (stereo not drawn) | > 25 | – | – | > 25 | > 25 | – | > 25 µM | > 25 | > 25 | > 25 µM | – | – | – | – | – | – | –
